In patent US12239650B2, “Compounds for treating and preventing net associated complications” (The Australian National University, priority 2019, dated 2025):

Columns and labels:
histones [1] = experiment: In-vivo histone toxicity assay; details: mice; for Relative potency in protecting from histone-induced tissue pathologies / Protection from histone-induced liver damage, generalised tissue injury and kidney failure (circulating ALT, LDH, creatinine): FIG. 6a; for Protection from histone-induced liver damage, generalised tissue injury and kidney failure (circulating ALT, LDH, creatinine): compound i.p. 10 min prior to i.v. histones 50 mg kg^−1, blood 4 h post-histones, concentration-dependent
Description: In-vivo histone toxicity assays. BALB/c female mice (5-6 weeks of age), that are more prone to histone-induced anemia and easier to inject i.v. at this young age than C57BL/6 mice, were injected i.p. with test compounds at concentrations indicated 10 min prior to i.v. injection of histones (50 mg kg^−1) in phosphate buffered saline. Retro-orbital bleeds were performed with glass Pasteur pipettes 10 min after histone injection and collected blood added to acid citrate dextrose (ACD), the 10 min blood sample being subjected to hematologic analyses for platelet and erythrocyte content using an ADVIA 2120i Hematology Analyzer. Spleens were also harvested at 10 min post-histone injection and splenic hemoglobin content quantified using a hemoglobin assay kit (Sigma-Aldrich). In the case of 4 h blood samples, male C57/BL/6 mice (6-8 weeks of age) were injected with test compounds and histones as above and plasma isolated and stored frozen for subsequent biochemical testing, with markers for liver (alanine aminotransferase, ALT), kidney (creatinine, Crea) and general tissue (lactate dehydrogenase, LDH) damage being determined by the Department of Pathology, The Canberra Hospital.

[2] = Rat caecal ligation and puncture (CLP) assay for sepsis; format: in vivo; details: for Mortality in CLP model of sepsis: rats n=8/group, 50 mg kg^−1 i.p. 5 min pre-CLP and 5, 10, 15 h post-op, 20 h, FIG. 7a; for High ALT and creatinine levels (liver and kidney damage) in CLP rats: 50 mg kg^−1 i.p., versus untreated group, FIG. 7b
Description: Rat caecal ligation and puncture (CLP) assay for sepsis. […] Test compounds (50 mg kg^−1) dissolved in saline or an equivalent volume of saline only (Control cohort) were administered i.p. 5 min pre-CLP and 5, 10 and 15 h post-op until cessation of the experiment at 20 h. Sham-CLP rats underwent the same procedure, however, the caecum was not ligated or punctured and these rats received saline at the same times as above. At the conclusion of the experimental time period (20 h) or when morbidity required ethical euthanasia, the rats were anaesthetized and blood was collected via cardiac puncture into EDTA for subsequent analysis of liver (ALT) and kidney (creatinine) function by the Department of Pathology, The Canberra Hospital.

[3] = tested on: histone-induced Ca2+ flux by HMEC-1; experiment: Calcium flux in endothelial cells (Indo-1 flow cytometry); format: cell-based, human; details: compounds 100 μg ml^−1, histones 100 μg ml^−1, FIG. 5c
Description: Calcium flux studies in endothelial cells. HMEC-1 (2×10^7 ml^−1) in RPMI-1640 medium were incubated with Indo-1 AM (5 μM) (ThermoFisher) (Tellam, R. L. & Parish, C. R. The effect of sulfated polysaccharides on the free intracellular calcium ion concentration of lymphocytes. Biochim Biophys Acta 930, 55-64 (1987); and Weston, S. A., Tellam, R. L. & Parish, C. R. Dextran sulfate induces changes in the free intracellular calcium ion concentration of a subpopulation of immature thymocytes. Immunol Cell Biol 69, 369-376 (1991)) at 37° C. for 60 min. After 3 washes with RPMI-1640 medium supplemented with 5% FCS the cells were resuspended at 4×10^6 ml^−1 in ice-chilled HEPES-buffered saline (NaCl 8 g l^−1, KCl 0.4 g l^−1, CaCl2 0.2 g l^−1, MgCl2·6H2O 0.2 g l^−1, D-glucose 1.8 g l^−1, pH 7.4) supplemented with 10 mM HEPES. […] Intracellular Ca^2+ flux was monitored using flow cytometry. […] After the exclusion of cellular debris and clumped cells (on the basis of FSC/SSC light scattering) the basal Ca^2+ level was monitored for 2 min before histone addition in the presence/absence of novel compounds. Ca^2+ levels were measured at 1, 3 and 9 min post-histone addition with a constant flow rate (˜300 events/sec). Ca^2+ flux was determined as an increase in the ratio of geometric mean fluorescence intensity (GMFI) of Ca^2+-bound over Ca^2+-unbound Indo-1.

histones [4] = experiment: Murine histone-induced deep vein thrombosis (DVT) model; format: in vivo; details: mice, histones 10 mg kg^−1 i.v., compound 50 mg kg^−1 i.v., 48 h, FIG. 6c
Description: Murine deep vein thrombosis (DVT) model. The procedure used is largely as previously described (Brill, A. et al. Neutrophil extracellular traps promote deep vein thrombosis in mice. J Thromb Haemost 10, 136-144 (2012)). […] The peritoneum and skin were closed following which all mice received an i.v. injection of histones via the tail vein (10 mg kg^−1) or an equivalent volume of saline followed 5 min later by an i.v. injection of test compounds (50 mg kg^−1) or saline. Mice were monitored for 48 h after which they were re-anesthetized, re-opened and any thrombi that had developed distal to the IVC stenosis were removed for analysis. Sham operated control animals received laparotomy and 90% ligation of the IVC, however the ligation was removed immediately after occlusion of the IVC.

[5] = Rat cardiac ischemia reperfusion injury model; format: in vivo; details: rats, 30 mg kg^−1 into left ventricle 5 min prior to reperfusion, FIG. 7c
Text: Rat cardiac ischemia reperfusion injury model. The method used is based on a combination of previously published procedures (Takada, Y., Hashimoto, M., Kasahara, J., Aihara, K. & Fukunaga, K. Cytoprotective effect of sodium orthovanadate on ischemia/reperfusion-induced injury in the rat heart involves Akt activation and inhibition of fodrin breakdown and apoptosis. J Pharmacol Exp Ther 311, 1249-1255 (2004); and Hale, S. L., Dae, M. W. & Kloner, R. A. Hypothermia during reperfusion limits ‘no-reflow’ injury in a rabbit model of acute myocardial infarction. Cardiovasc Res 59, 715-722 (2003)). Male Wistar rats were anaesthetized with isofluorane, intubated via tracheostomy and ventilated with a tidal volume of 1 ml 150 g^−1 and a respiratory rate of 65 breaths min^−1. Supplemental oxygen was delivered at a FiO2 of ˜30%. […]
At the conclusion of reperfusion (30 min), Thioflavin S (1 ml 200 g^−1 of body weight) was slowly injected into the lumen of the left ventricle, to define the territory of microvascular obstruction (MVO) within the ischemic zone (IZ). The IZ territory was determined by the re-occlusion of the atraumatic snare and infusion of blue microspheres into the left ventricle (Unisperse Blue, BASF), distributed within solutions via ultrasonication using a CD-6800 (Unisonics) sonicator. […] Planimetry (Image J, Freeware) was used to quantify the areas of the IZ, MVO and necrosis.

O=S(=O)(O)OC[C@H]1O[C@@H](O[C@H]2[C@H](OS(=O)(=O)O)[C@@H](OS(=O)(=O)O)C(OS(=O)(=O)O)O[C@@H]2COS(=O)(=O)O)[C@H](OS(=O)(=O)O)[C@@H](OS(=O)(=O)O)[C@@H]1OS(=O)(=O)O (stereo partly drawn) [CBS, cellobiose per-O-sulfate]
Relative potency in protecting from histone-induced tissue pathologies (histones [1]): equally active
Protection from histone-induced liver damage, generalised tissue injury and kidney failure (circulating ALT, LDH, creatinine) (histones [1]): protected
Mortality in CLP model of sepsis [2]: no mortality
High ALT and creatinine levels (liver and kidney damage) in CLP rats [2]: not seen
Effect on histone-induced Ca2+ response [3]: substantially inhibited
Inhibition of histone-mediated DVT (histones [4]): almost totally inhibited
Reduction of area of microvascular obstruction and myocardial necrosis in the ischemic zone [5]: 50%

O=S(=O)(O)OC[C@H]1O[C@H](O[C@H]2[C@H](OS(=O)(=O)O)[C@@H](OS(=O)(=O)O)C(OS(=O)(=O)O)O[C@@H]2COS(=O)(=O)O)[C@H](OS(=O)(=O)O)[C@@H](OS(=O)(=O)O)[C@@H]1O[C@H]1O[C@H](COS(=O)(=O)O)[C@@H](OS(=O)(=O)O)[C@H](OS(=O)(=O)O)[C@H]1OS(=O)(=O)O (stereo partly drawn) [MTS, maltotriose per-O-sulfate]
Histone-induced thrombocytopenia and anaemia (histones [1]; 100 mg kg^−1 i.p., 10 min post-histones, FIG. 6b): prevented
Relative potency in protecting from histone-induced tissue pathologies (histones [1]): most potent
Protection from histone-induced liver damage, generalised tissue injury and kidney failure (circulating ALT, LDH, creatinine) (histones [1]): protected
Mortality in CLP model of sepsis [2]: only one death
High ALT and creatinine levels (liver and kidney damage) in CLP rats [2]: only partially reduced
Effect on histone-induced Ca2+ response [3]: totally ablated
Inhibition of histone-mediated DVT (histones [4]): almost totally inhibited
Reduction of area of microvascular obstruction and myocardial necrosis in the ischemic zone [5]: totally ineffectual
